In PMC10907374, “G2019S selective LRRK2 kinase inhibitor abrogates mitochondrial DNA damage” (NPJ Parkinson's Disease, 2024):
“And” between values parts separate entries of the source, which are not always exact repeats. Equal entries are not always repeated. “Also recorded” adds a separate entry of the source.

Experiments:
[1] = system: LRRK2 in heterozygous G2019S LRRK2 PD patient-derived LCLs; assay: LRRK2 pSer935 western immunoblot in heterozygous G2019S LRRK2 PD patient-derived LCLs; format: cell-based, human; details: for decrease in LRRK2 pSer935 levels: heterozygous G2019S LRRK2 PD LCLs
Description: PD patient G2019S LRRK2 (n = 2) and healthy subject control (n = 2)-derived LCLs were obtained from the NINDS Coriell biorepository (ID numbers are ND00011, ND00264, ND01618, ND02559). […] LCLs were cultured at 37 °C, 5% CO2, in RPMI-1640 (Sigma-Aldrich, R8758), 15% heat-inactivated fetal bovine serum (VWR Seradigm, 97068-091) and 0.5% Penicillin/Streptomycin (Corning, 30-002-CI). […] All in vitro experiments were repeated at least three times from distinct samples.
For LRRK2-WT or G2019S-LRRK2, ~1.5 million cells were pelleted and resuspended in 75 μl of lysis buffer [(RIPA Buffer (Sigma-Aldrich, R0278-50ML), protease inhibitor cocktail (Sigma-Aldrich, P8340), and Halt phosphatase inhibitor cocktail (Thermo Fisher, 78420)]. For LCLs, five million cells were pelleted and resuspended in 100 µl of lysis buffer. For both types of cells lysates were centrifuged at 10,000 × g after a 10 min incubation on ice, and the supernatant was collected. Protein was quantified using the DC protein assay (Bio-Rad, 5000112). In total, 50 μg of protein was loaded for HEK293 LRRK2-WT or G2019S-LRRK2 cells. Due to the differing endogenous LRRK2 levels, 40 µg of ND02559, 60 µg of ND00264, or 100 µg of ND00011 and ND01618 of protein sample was loaded. Protein samples were incubated at 100 °C for 5 min with NuPAGE Sample loading dye (Thermo Fisher, NP0007) and dithiothreitol as reducing agent. After 4–20% SDS-PAGE, the blots were blocked in 5% w/v nonfat dry milk in 1X PBST (0.05% Tween 20). For our investigations, the following primary antibodies were used: mouse anti-LRRK2 N241a (Antibodies INC, 75-253, 1:5000 for HEK293 cells and 1:2000 for LCLs), rabbit anti-LRRK2 pS935 (Abcam, ab133450, 1:10,000 for HEK293 cells and 1:2000 for LCLs), mouse anti-β-actin (Novus, 8H10D10, 1:10,000), and rabbit anti-LRRK2 pS1292 (Abcam, ab203181, 1:500). The blots were then probed with fluorescent-labeled secondary antibodies, IRDye donkey anti-mouse and anti-rabbit at 1:10,000 (LI-COR, 926-32212, 926-68072), and scanned using an Odyssey Imaging scanner (LI-COR). Fluorescence intensities were quantified using ImageStudio Lite software (LI-COR), and the signal from the protein of interest was normalized to the fluorescence intensity of either LRRK2 or β-actin. Values were averaged from at least three technical replicates within a cell line, or two biological replicates (two healthy control lines and two PD LCLs). All blots were derived from the same experiment and processed in parallel.

[2] = system: heterozygous G2019S LRRK2 PD patient-derived LCLs; assay: Mito DNADX mtDNA damage and mtDNA copy number in G2019S LRRK2 PD patient-derived LCLs; format: cell-based, human; details: 10 and 100 nM, 2 h
Description: PD patient G2019S LRRK2 (n = 2) and healthy subject control (n = 2)-derived LCLs were obtained from the NINDS Coriell biorepository (ID numbers are ND00011, ND00264, ND01618, ND02559). There was not a statistical difference in the ages between the PD patient and healthy control subjects (p = 0.92). LCLs were cultured at 37 °C, 5% CO2, in RPMI-1640 (Sigma-Aldrich, R8758), 15% heat-inactivated fetal bovine serum (VWR Seradigm, 97068-091) and 0.5% Penicillin/Streptomycin (Corning, 30-002-CI). […] All in vitro experiments were repeated at least three times from distinct samples.
The tool compound EB-42168 was discovered as part of a small molecule discovery program aimed at identifying LRRK2 kinase inhibitors that are selective for the pathogenic G2019S LRRK2 variant. […] MLi‐2 inhibits WT LRRK2 ~1000‐fold more than EB‐42168[20].
Cells were collected and the nuclei and mitochondria were isolated as previously described. DNA was extracted from LRRK2-WT and G2019S-LRRK2 cells, and wild-type and LRRK2^G2019S/G2019S KI cells using QuickGene DNA Whole Blood Kit L (Autogen, fk-dbl). PD patient LRRK2 G2019S and healthy subject control-derived LCL DNA was extracted using the QuickGene DNA Tissue Kit L (Autogen, fk-dtl), utilizing a semi-automated system (Autogen, QuickGene-610L). For the Autogen system, the pellet was resuspended in 2 ml of 1X PBS, and the standard manufacturer’s protocol was conducted as if the cell suspension was whole blood. DNA was eluted with EDTA-free buffer, and quality was assessed using a Spectradrop microvolume microplate (Molecular Devices). Double-stranded DNA was quantified using Quant-iT Picogreen dsDNA assay (Thermo Fisher) as previously described.
DNA damage in the mitochondrial genome was measured utilizing Mito DNADX, an assay that we recently developed and described, currently the most robust way of measuring damage in mtDNA[39],[82]. The Mito DNADX assay combines optimized polymerase chain reaction (PCR) parameters using a high-fidelity DNA polymerase and a fluorescent dye that binds to double-stranded DNA that permits the real-time quantification of DNA damage in distinct loci in a 96-well platform. The premise of the Mito DNADX assay involves amplification of a specific mitochondrial PCR fragment in which less PCR product will be amplified when mtDNA damage or lesions block the ability of the DNA polymerase to replicate. As such, mtDNA damage or mtDNA repair intermediates that slow down or impair DNA polymerase progression will be detected. […] Briefly, 15 ng of DNA was used to amplify long or short amplicons of the mitochondrial genome (as determined by primer sets). […] Average lesion frequency is calculated as described. […] Each biological DNA sample was analyzed in technical triplicate. […]

SMILES | decrease in LRRK2 pSer935 levels ([1]; 10 nM, 2 h) | decrease in LRRK2 pSer935 levels ([1]; 100 nM, 2 h) [%] | decrease of LRRK2 pSer935 ([1]; human PD patient-derived cells heterozygous for G2019S LRRK2, concentration not given) | mtDNA copy number [2] | mtDNA damage [2] | effect on LRRK2 pSer935 (in words) ([1]; G2019S LRRK2 PD LCLs, 10 and 100 nM, 2 h)
CC1=C(C(=O)Nc2ccc3[nH]nc(-c4ccnc(N5CCOCC5)c4)c3c2)C(C)(C)n2nnnc2N1C [EB-42168] | ~ 30% and 25% | ~40 | about 40% | No differences | restored to control levels | 
C[C@@H]1CN(c2cc(-c3n[nH]c4ccc(OC5(C)CC5)cc34)ncn2)C[C@H](C)O1 [MLi-2, reference compound] |  |  |  | No differences | reversed mtDNA damage | almost completely; also recorded: almost complete
